In US9586952B2, “Polycyclic estrogen receptor modulators and uses thereof” (SERAGON PHARMACEUTICALS, INC., priority 2013, dated 2017):

Columns and labels:
[1] = biological target: T1, ER-α (Homo sapiens, UniProt P03372); experiment: Breast Cancer Cell ER-α In Cell Western Assay (SP1); type: cell-based; conditions: MCF-7 cells, 4 or 24 hr post compound addition, SP1 antibody; for Emax: MCF7, read-out: ER-α In Cell Western Assay (SP1) Max Response; for DC50: read-out: ER-α In Cell Western Assay (SP1) IC50
T1 construct: endogenous in cells; host or cells: MCF-7
T1 sequence (P03372 1-595): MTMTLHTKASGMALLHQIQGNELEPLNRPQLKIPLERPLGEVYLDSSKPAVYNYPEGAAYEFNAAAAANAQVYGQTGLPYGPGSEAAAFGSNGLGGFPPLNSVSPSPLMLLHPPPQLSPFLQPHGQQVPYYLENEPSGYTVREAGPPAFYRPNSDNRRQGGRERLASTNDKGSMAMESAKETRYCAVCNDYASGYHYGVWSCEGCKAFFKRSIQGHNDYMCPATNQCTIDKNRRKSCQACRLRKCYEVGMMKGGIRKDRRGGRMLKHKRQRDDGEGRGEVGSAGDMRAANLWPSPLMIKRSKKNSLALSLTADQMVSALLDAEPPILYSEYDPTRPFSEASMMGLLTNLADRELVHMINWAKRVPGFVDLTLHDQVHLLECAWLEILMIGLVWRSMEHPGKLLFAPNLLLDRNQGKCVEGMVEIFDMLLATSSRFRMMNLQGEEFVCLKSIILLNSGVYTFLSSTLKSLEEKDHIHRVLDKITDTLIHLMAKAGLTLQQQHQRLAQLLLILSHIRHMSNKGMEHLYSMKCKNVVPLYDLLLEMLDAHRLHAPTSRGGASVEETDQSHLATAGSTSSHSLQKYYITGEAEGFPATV
In short: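 MCF-7 cells in RPMI with 10% charcoal-stripped FBS received an eleven-point semilog series, 0.3-0.000003 μM final, for 4 or 24 hr. After fixation, ER-α stained with SP1 antibody and IRDye 800 CW, DNA with DRAQ5; % ER = 800/700 nm intensity ratio relative to untreated cells.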

[2] = tested on: MCF-7 cells; experiment: MCF7 Viability Assay (Breast Cancer Cell Viability Assay); type: cell-based; conditions: 5 days' compound exposure, CellTiter-Glo; for IC50: Homo sapiens, MCF7, 120 h
In short: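 Cells (320 per well, RPMI with 10% FBS and 20 mM HEPES) adhered overnight, then were exposed 5 days to an eleven-point semilog compound series, 0.3-0.000003 μM final. Viability read by CellTiter-Glo luminescence, background-subtracted, expressed as % of untreated cells.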

| SMILES | Emax [1] | DC50 [1] | MCF7 Viability Assay Max Response [2] | IC50 [2] |
| --- | --- | --- | --- | --- |
| COc1ccc(/C(=C(\c2ccc(/C=C/C(=O)O)cc2)c2ccc(-c3cncs3)cc2)C2CCC2)c(C)c1 [Example 54, (E)-3-(4-((E)-2-Cyclobutyl-2-(4-methoxy-2-methylphenyl)-1-(4-(thiazol-5-yl)phenyl)vinyl)phenyl)acrylic acid] | ≥ 40% | ≤ 100 nM | ++ (++ = a single % value ≧ 40%) | ≤ 100 nM |
| O=C(O)/C=C/c1ccc(/C(=C(\c2ccc(C(F)(F)F)cc2Cl)C2CCC2)c2ccc(-c3cn[nH]c3)cc2)cc1 [Example 55, (E)-3-(4-((E)-1-(4-(1H-Pyrazol-4-yl)phenyl)-2-(2-chloro-4-(trifluoromethyl)phenyl)-2-cyclobutylvinyl)phenyl)acrylic acid] | ≥ 40% | ≤ 100 nM | ++ (++ = a single % value ≧ 40%) | ≤ 100 nM |
| O=C(O)/C=C/c1ccc(/C(=C(\c2ccc(F)cc2Cl)C2CCC2)c2ccc(-c3ccncc3)cc2)cc1 [Example 56, (E)-3-(4-((E)-2-(2-Chloro-4-fluorophenyl)-2-cyclobutyl-1-(4-(pyridin-4-yl)phenyl)vinyl)phenyl)acrylic acid] | ≥ 40% | ≤ 100 nM | ++ (++ = a single % value ≧ 40%) | ≤ 100 nM |
| O=C(O)/C=C/c1ccc(/C(=C(\c2ncc(C(F)(F)F)cc2Cl)C2CCC2)c2ccc(N3CCOCC3)cc2)cc1 [Example 57, (E)-3-(4-((E)-2-(3-Chloro-5-(trifluoromethyl)pyridin-2-yl)-2-cyclobutyl-1-(4-morpholinophenyl)vinyl)phenyl)acrylic acid] | ≥ 40% | ≤ 100 nM | ++ (++ = a single % value ≧ 40%) | ≤ 100 nM |
| O=C(O)/C=C/c1ccc(/C(=C(\c2ncc(C(F)(F)F)cc2Cl)C2CCC2)c2ccc(-c3cn[nH]c3)cc2)cc1 [Example 58, (E)-3-(4-((E)-1-(4-(1H-Pyrazol-4-yl)phenyl)-2-(3-chloro-5-(trifluoromethyl)pyridin-2-yl)-2-cyclobutylvinyl)phenyl)acrylic acid] | ≥ 40% | ≤ 100 nM | ++ (++ = a single % value ≧ 40%) | ≤ 100 nM |
| O=C(O)/C=C/c1ccc(/C(=C(\c2ncc(C(F)(F)F)cc2Cl)C2CCC2)c2ccc(-c3cncs3)cc2)cc1 [Example 59, (E)-3-(4-((E)-2-(3-Chloro-5-(trifluoromethyl)pyridin-2-yl)-2-cyclobutyl-1-(4-(thiazol-5-yl)phenyl)vinyl)phenyl)acrylic acid] | ≥ 40% | ≤ 100 nM | ++ (++ = a single % value ≧ 40%) | ≤ 100 nM |
| N#Cc1cc(N2CCOCC2)ccc1/C(=C(/c1ccc(F)cc1Cl)C1CCC1)c1ccc(/C=C/C(=O)O)cc1 [Example 60, (E)-3-(4-((E)-2-(2-Chloro-4-fluorophenyl)-1-(2-cyano-4-morpholinophenyl)-2-cyclobutylvinyl)phenyl)acrylic acid] | ≥ 40% | ≤ 100 nM | ++ (++ = a single % value ≧ 40%) | ≤ 100 nM |
| COc1cc(C)c(/C(=C(\c2ccc(/C=C/C(=O)O)cc2)c2ccc(-c3cn[nH]c3)cc2)C2CCC2)cn1 [Example 61, (E)-3-(4-((E)-1-(4-(1H-Pyrazol-4-yl)phenyl)-2-cyclobutyl-2-(6-methoxy-4-methylpyridin-3-yl)vinyl)phenyl)acrylic acid] | ≥ 40% | ≤ 100 nM | ++ (++ = a single % value ≧ 40%) | ≤ 100 nM |
| N#Cc1cc(Cl)ccc1/C(=C(\c1ccc(/C=C/C(=O)O)cc1)c1ccc(-c2cncs2)cc1)C1CCC1 [Example 62, (E)-3-(4-((E)-2-(4-Chloro-2-cyanophenyl)-2-cyclobutyl-1-(4-(thiazol-5-yl)phenyl)vinyl)phenyl)acrylic acid] | ≥ 40% | ≤ 100 nM | ++ (++ = a single % value ≧ 40%) | ≤ 100 nM |
| c1ccc(/C(=C(\c2ccc(OCCN3CCCC3)cc2)c2ccc(-c3cn[nH]c3)cc2)C2CCC2)cc1 [Example 63, (Z)-4-(4-(2-cyclobutyl-2-phenyl-1-(4-(2-(pyrrolidin-1-yl)ethoxy)phenyl)vinyl)phenyl)-1H-pyrazole] | ≥ 40% | ≤ 100 nM | ++ (++ = a single % value ≧ 40%) | ≤ 100 nM |
| CC1CCN(c2ccc(/C(=C(/c3ccccc3)C3CCC3)c3ccc(/C=C/C(=O)O)cc3)cc2)CC1 [Example 64, (E)-3-(4-((E)-2-Cyclobutyl-1-(4-(4-methylpiperidin-1-yl)phenyl)-2-phenylvinyl)phenyl)acrylic acid] | ≥ 40% | > 100 nM | ++ (++ = a single % value ≧ 40%) | > 100 nM |
| O=C(O)/C=C/c1ccc(/C(=C(\c2ccccc2)C2CCC2)c2ccc(N3CCNCC3)cc2)cc1 [Example 65, (E)-3-(4-((E)-2-Cyclobutyl-2-phenyl-1-(4-(piperazin-1-yl)phenyl)vinyl)phenyl)acrylic acid] | ≥ 40% | ≤ 100 nM | ++ (++ = a single % value ≧ 40%) | ≤ 100 nM |
| O=C(O)/C=C/c1ccc(/C(=C(\c2ccccc2)C2CCC2)c2ccc(-c3ccncc3)cc2)cc1 [Example 66, (E)-3-(4-((E)-2-Cyclobutyl-2-phenyl-1-(4-(pyridin-4-yl)phenyl)vinyl)phenyl)acrylic acid] | ≥ 40% | ≤ 100 nM | ++ (++ = a single % value ≧ 40%) | ≤ 100 nM |
| O=C(O)/C=C/c1ccc(/C(=C(\c2ccccc2)C2CCC2)c2ccc(-c3cnn(CCO)c3)cc2)cc1 [Example 67, (E)-3-(4-((E)-2-Cyclobutyl-1-(4-(1-(2-hydroxyethyl)-1H-pyrazol-4-yl)phenyl)-2-phenylvinyl)phenyl)acrylic acid] | ≥ 40% | ≤ 100 nM | ++ (++ = a single % value ≧ 40%) | ≤ 100 nM |
| Cc1cscc1/C(=C(\c1ccc(/C=C/C(=O)O)cc1)c1ccc(-c2cnn(CCO)c2)cc1)C1CCC1 [Example 68, (E)-3-(4-((E)-2-Cyclobutyl-1-(4-(1-(2-hydroxyethyl)-1H-pyrazol-4-yl)phenyl)-2-(4-methylthiophen-3-yl)vinyl)phenyl)acrylic acid] | ≥ 40% | ≤ 100 nM | ++ (++ = a single % value ≧ 40%) | ≤ 100 nM |
| O=C(O)/C=C/c1ccc(/C(=C(\c2ccc(F)cc2Cl)C2CCC2)c2ccc(-c3cnn(CCO)c3)cc2)cc1 [Example 69, (E)-3-(4-((E)-2-(2-Chloro-4-fluorophenyl)-2-cyclobutyl-1-(4-(1-(2-hydroxyethyl)-1H-pyrazol-4-yl)phenyl)vinyl)phenyl)acrylic acid] | ≥ 40% | ≤ 100 nM | ++ (++ = a single % value ≧ 40%) | ≤ 100 nM |
| CN(C)CCn1cc(-c2ccc(/C(=C(/c3ccccc3)C3CCC3)c3ccc(/C=C/C(=O)O)cc3)cc2)cn1 [Example 70, (E)-3-(4-((E)-2-Cyclobutyl-1-(4-(1-(2-(dimethylamino)ethyl)-1H-pyrazol-4-yl)phenyl)-2-phenylvinyl)phenyl)acrylic acid] | ≥ 40% | ≤ 100 nM | ++ (++ = a single % value ≧ 40%) | ≤ 100 nM |
| Fc1ccc(/C(=C(\c2ccc(/C=C/c3nn[nH]n3)cc2)c2ccc(-c3cn[nH]c3)cc2)C2CCC2)c(Cl)c1 [Example 71, 5-((E)-4-((E)-1-(4-(1H-Pyrazol-4-yl)phenyl)-2-(2-chloro-4-fluorophenyl)-2-cyclobutylvinyl)styryl)-2H-tetrazole] | ≥ 40% | ≤ 100 nM | ++ (++ = a single % value ≧ 40%) | ≤ 100 nM |
